Here are results for five compounds from patent US20180222953A1, “SARCOMERE BIOSENSOR AND METHODS OF USE THEREOF” (REGENTS OF THE UNIVERSITY OF MINNESOTA, priority 2017, published 2018).

SMILES strings stand for the structures. “Also recorded” adds a separate entry of the source.

The subject of experiment [1] is cardiac myocyte calcium transients. As to the kind of experiment: Fura-2 AM calcium transients in single cardiac myocytes. The experiment is classed as cell-based, mouse. The conditions noted are these: 10 μM, n=4 pairs. The protocol: For real-time simultaneous sarcomere length and biosensor measurements, a modified Ionoptix Calcium and Contractility system was used. Sarcomere length changes were detected at 240 Hz sampling rate and fluorescence measurements were detected at 1000 Hz sampling rate with two photomultipler tubes. Measurements were made at 37° C. and a stimulation frequency of 0.2 Hz unless specified otherwise. For biosensor measurements, a Xenon arc lamp was used and filtered with a 500/10 nm hard-coated bandpass filter before entering the microscope turret. The microscope turret featured a 505 dichroic long pass filter. […] For calcium fluorescence measurements, the mouse myocytes were pre-loaded for 20 minutes in M199 solution containing 1 μM Fura-2 AM (ThermoFisher Cat #F1221), and a ten minute period was allowed for deesterification. For calcium fluorescence measurements the 360/380 nm ratio was determined. For each myocyte, several contractions were measured, averaged, and analyzed using the IonWizard software.
For real-time simultaneous sarcomere length and Sarcometer biosensor measurements, a modified Ionoptix Calcium and Contractility system was used. Sarcomere length changes were detected at 240 Hz sampling rate and fluorescence measurements were detected at 1000 Hz sampling rate with two photomultipler tubes (FIG. 9). […] For calcium fluorescence measurements the 360/380 nm ratio was determined. […]

Experiment [2] concerns the target TnC hydrophobic patch (Homo sapiens, UniProt P63316). The conditions noted are these: binds directly to the TnC hydrophobic patch; Oleszczuk et al. 2010; cited from earlier work.
The test system of experiment [3] is isolated adult cardiac myocytes. As to the kind of experiment: Sarcomere length (SL) shortening in isolated Sarcometer Tg cardiac myocytes before and after treatment. Format: cell-based, mouse. As to conditions: 0.2 Hz stimulation; for SL contractile amplitude: 37° C. The protocol:
Mice were injected with 0.25 cc 10,000U/ml heparin (McKesson cat#NDC 63739-964-25) and anesthetized 10 minutes later with 0.15 cc 50 mg/ml sodium pentobarbital (Vortech Pharmaceuticals). The heart was rapidly excised and placed in ice cold Krebs-Henseleit buffer (Sigma cat#K3753) modified with 25 mM HEPES (Sigma cat#H4034), 10 mM 2,3-Butanedione monoxime (Sigma cat#B0753), 30 mM Taurine (Sigma cat#T0625) and the aorta was cannulated. The mounted heart was placed on a perfusion system at 37° C. The heart was perfused with calcium free modified Krebs-Henseleit buffer with 2 mg/ml crudely purified collagenase for 10 minutes. The heart was then removed from the cannula, the atria were removed and the ventricles were dissected into pieces approximately 2 mm in diameter. The dissected ventricular tissue was then gently mechanically triturated in collagenase to liberate isolated myocytes. After brief low-speed centrifugation, isolated myocytes were resuspended in nominal calcium and 0.025 mg/ml bovine serum albumin (HyClone cat#SH30574.03) in a modified Kreb-Henseleit buffer. After the final trituration step, calcium was added back to the buffer step wise until reaching a final concentration of 2 mM CaCl2. Myocytes were plated on laminin-coated (ThermoFisher cat#23017015) glass coverslips in M199 media (Gibco cat#31100-035) containing 5% fetal bovine serum (HyClone cat#SH30071.03) and incubated for one hour at 37° C. with 5% CO2. After the one hour incubation, the media was changed to serum free M199 media and the myocytes were used for experiments within 5 hours.
(§1) For real-time simultaneous sarcomere length and biosensor measurements, a modified Ionoptix Calcium and Contractility system was used. Sarcomere length changes were detected at 240 Hz sampling rate and fluorescence measurements were detected at 1000 Hz sampling rate with two photomultipler tubes. Measurements were made at 37° C. and a stimulation frequency of 0.2 Hz unless specified otherwise. For biosensor measurements, a Xenon arc lamp was used and filtered with a 500/10 nm hard-coated bandpass filter before entering the microscope turret. The microscope turret featured a 505 dichroic long pass filter. Fluorescent light from the sample was shunted through microscope side port where it was split by a dichroic mirror with light above 650 nm going towards the Myocam for sarcomere length detection and light below 650 nm being further shunted to an additional filter cube. In this final filter cube, a 565 nm dichroic long pass mirror split the light again. Light with wavelengths below 565 nm corresponding to the Clover protein was further cleaned up by a 534/20 nm hard-coated bandpass filter before reaching the photomultiplier tuber and light with wavelengths above 565 nm was further cleaned up by a 592/43 nm hard-coated bandpass filter before reaching the photomultiplier tube. For calcium fluorescence measurements, the mouse myocytes were pre-loaded for 20 minutes in M199 solution containing 1 μM Fura-2 AM (ThermoFisher Cat #F1221), and a ten minute period was allowed for deesterification. For calcium fluorescence measurements the 360/380 nm ratio was determined. For each myocyte, several contractions were measured, averaged, and analyzed using the IonWizard software.
Eight to twelve week old mice of both sexes were injected with 0.25 cc 10,000U/ml heparin and anesthetized 10 minutes later with 0.15 cc 50 mg/ml sodium pentobarbital. The heart was rapidly excised and placed in ice cold Krebs-Henseleit buffer modified with 25 mM HEPES, 10 mM 2,3-Butanedione monoxime, 30 mM Taurine and the aorta was cannulated. The mounted heart was placed on a perfusion system at 37° C. The heart was perfused with calcium free modified Krebs-Henseleit buffer with 2 mg/ml crudely purified collagenase for 10 minutes. The heart was then removed from the cannula, the atria were removed and the ventricles were dissected into pieces approximately 2 mm in diameter. […]

The subject of experiment [4] is sarcomere activation (Sarcometer cTnC biosensor) in live cardiac myocytes. As to the kind of experiment: Sarcometer Clover fluorescence (FRET) transient in live cardiac myocytes before and after treatment. Format: cell-based, mouse. The conditions noted are these: 0.2 Hz stimulation; for Clover peak fluorescence intensity (Sarcometer amplitude) / Sarcometer kinetics: 37° C. The protocol:
as §1
Eight to twelve week old mice of both sexes were injected with 0.25 cc 10,000U/ml heparin and anesthetized 10 minutes later with 0.15 cc 50 mg/ml sodium pentobarbital. The heart was rapidly excised and placed in ice cold Krebs-Henseleit buffer modified with 25 mM HEPES, 10 mM 2,3-Butanedione monoxime, 30 mM Taurine and the aorta was cannulated. The mounted heart was placed on a perfusion system at 37° C. The heart was perfused with calcium free modified Krebs-Henseleit buffer with 2 mg/ml crudely purified collagenase for 10 minutes. The heart was then removed from the cannula, the atria were removed and the ventricles were dissected into pieces approximately 2 mm in diameter. The dissected ventricular tissue was then gently mechanically triturated in collagenase to liberate isolated myocytes. After brief low-speed centrifugation, isolated myocytes were resuspended in nominal calcium and 0.025 mg/ml bovine serum albumin in a modified Kreb-Henseleit buffer. After the final trituration step, calcium was added back to the buffer step wise until reaching a final concentration of 2 mM CaCl2. Myocytes were plated on laminin-coated (ThermoFisher cat#23017015) glass coverslips in M199 media (Gibco cat#31100-035) containing 5% fetal bovine serum and incubated for one hour at 37° C. with 5% CO2. After the one hour incubation, the media was changed to serum free M199 media and the myocytes were used for experiments within 5 hours.
For real-time simultaneous sarcomere length and Sarcometer biosensor measurements, a modified Ionoptix Calcium and Contractility system was used. Sarcomere length changes were detected at 240 Hz sampling rate and fluorescence measurements were detected at 1000 Hz sampling rate with two photomultipler tubes (FIG. 9). Measurements were made at 37° C. and a stimulation frequency of 0.2 Hz unless specified otherwise. For Sarcometer measurements, a Xenon arc lamp was used and filtered with a 500/10 nm hard-coated bandpass filter before entering the microscope turret. The microscope turret featured a 505 dichroic long pass filter. […]

Setting [5] is: 10 μM, before vs after treatment.
The mark [6] stands for this setting: 10 μM, before vs after treatment, listed as PNB.

In the case of `NCCCCCCNS(=O)(=O)c1cccc2c(Cl)cccc12` [W7, N-aminohexyl-5-chloro-1-naphthalenesulfonamide], the “calcium transient amplitude or kinetics” value in experiment [1] is reported as “unaltered; also recorded: no changes in calcium amplitude or kinetics”. Moreover, in experiment [2], the “decrease of TnI switch peptide binding” value is reported as 13 fold. The SL contractile amplitude entry in experiment [3] (setting [5]) is recorded as “reduced SL amplitude; also recorded: decreased contractile amplitude”. For the same compound, the “Clover peak fluorescence intensity (Sarcometer amplitude)” value (shortened to “Clover peak fluorescence intensity”) in experiment [4] (setting [5]) is “significantly depressed; also recorded: decreased peak fluorescence intensity”.

For the compound `COc1ccc(-c2nc3ccc(C4=NNC(=O)CC4C)cc3[nH]2)cc1` (centres unmarked) [Pimobendan], the SL contractile amplitude result in experiment [3] (setting [5]) is listed as “increased SL amplitude; also recorded: increased contractile amplitude”. Moreover, the “Clover peak fluorescence intensity” value in experiment [4] (setting [5]) is recorded as “significant increase in Clover signal amplitude; also recorded: increased peak fluorescence intensity”.

With `COC(=O)N1CCN(Cc2cccc(NC(=O)Nc3ccc(C)nc3)c2F)CC1` [Omecamtiv mecarbil], the SL contractile amplitude result in experiment [3] (250 nM, n=14 pairs) is listed as “increased contractile amplitude”; in experiment [3] (250 nM, n=14 pairs, listed as OM), “significant increase SL amplitude”. Also, in experiment [4] (250 nM), the Sarcometer kinetics entry is given as “no effect”. Moreover, the “Clover peak fluorescence intensity” value in experiment [4] (250 nM, n=17 pairs) was “no difference in peak fluorescence intensity”; in experiment [4] (250 nM, n=17 pairs, listed as OM), “no effect”.

For `Cc1ccc2c(c1)C(=O)[C@]1(O)CCN(c3ccc([N+](=O)[O-])cc3)C1=N2` [para-Nitroblebbistatin], the values for the SL contractile amplitude entry in experiment [3] (setting [5]) and in experiment [3] (setting [6]) were “decreased contractile amplitude” and “effectively blocked contraction”, respectively. Moreover, the Sarcometer kinetics result in experiment [4] (10 μM) is “no significant effect”. Also, the “Clover peak fluorescence intensity” value in experiment [4] (setting [5]) is “no difference in peak fluorescence intensity”; in experiment [4] (setting [6]), “no significant effect”.

With `CC(C)NCC(O)c1ccc(O)c(O)c1` (centres unmarked) [isoproterenol], the SL shortening amplitude result in experiment [3] (50 nM, 30° C., before vs after treatment, n=34 pairs) is reported as “increase myocyte contraction; also recorded: increased shortening amplitude”. Further, the “sarcomere dynamics kinetics (SL relaxation)” value in experiment [3] (50 nM, 30° C., n=34 pairs) is listed as “speed SL relaxation; also recorded: faster kinetics”. In addition, in experiment [4] (50 nM, 30° C., n=24 pairs), the “Clover fluorescence kinetics (transient decay rate)” value was “significantly faster; also recorded: faster kinetics” and the “peak Clover fluorescence intensity” value is reported as “increased peak Clover fluorescence intensity”.
